Experiment [1] addresses Beta-arrestin-1 (Oryctolagus cuniculus, UniProt Q95223).
The target in experiment [2] is Platelet-activating factor receptor (Homo sapiens, UniProt P25105).
Platelet-activating factor receptor, sequence (P25105 whole entry): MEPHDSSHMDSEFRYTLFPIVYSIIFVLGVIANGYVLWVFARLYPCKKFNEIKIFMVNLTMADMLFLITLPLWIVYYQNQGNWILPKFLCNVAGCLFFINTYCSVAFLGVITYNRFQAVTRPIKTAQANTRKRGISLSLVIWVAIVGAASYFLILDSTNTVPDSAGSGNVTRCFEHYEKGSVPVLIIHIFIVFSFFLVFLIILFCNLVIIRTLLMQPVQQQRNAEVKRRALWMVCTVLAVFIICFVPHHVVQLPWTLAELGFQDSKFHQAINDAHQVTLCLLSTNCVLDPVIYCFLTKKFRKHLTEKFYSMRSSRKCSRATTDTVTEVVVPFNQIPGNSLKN

Beta-arrestin-1, sequence (Q95223 whole entry): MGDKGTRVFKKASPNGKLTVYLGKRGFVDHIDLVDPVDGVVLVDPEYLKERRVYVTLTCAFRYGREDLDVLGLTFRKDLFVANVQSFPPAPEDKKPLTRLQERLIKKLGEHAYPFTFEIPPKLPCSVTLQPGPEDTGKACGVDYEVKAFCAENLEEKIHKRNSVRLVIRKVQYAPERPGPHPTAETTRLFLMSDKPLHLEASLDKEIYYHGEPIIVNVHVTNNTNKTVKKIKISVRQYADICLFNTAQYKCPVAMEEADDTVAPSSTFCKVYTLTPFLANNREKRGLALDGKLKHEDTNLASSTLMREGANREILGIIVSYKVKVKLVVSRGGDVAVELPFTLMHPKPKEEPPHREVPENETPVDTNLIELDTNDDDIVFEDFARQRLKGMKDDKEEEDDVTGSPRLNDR

Regarding `CCCOc1c(OC)cc([C@H]2CC[C@H](c3cc(OC)c(OC)c(OC)c3)O2)cc1S(C)(=O)=O` [L-659,989, (-)], the results for the Ki in experiment [1] and in experiment [2] were 0.51 nM and 5.48 nM, respectively.

(Values after BindingDB's records for PubMed 2841449 (Merck Sharp & Dohme Research Laboratories, 1988).)
